Assay results as given in patent publication EP4707280A1, “1,4-CINEOLE DERIVATIVE AND INTERMEDIATE THEREOF, HERBICIDE CONTAINING SAID DERIVATIVE AS ACTIVE INGREDIENT, METHOD FOR USING HERBICIDE, AND METHOD FOR PREPARING AGROCHEMICAL COMPOSITION” (HOKKO CHEMICAL INDUSTRY CO., LTD., priority 2023, dated 2024).

Tests used:
Format in all cases: in vivo
[1] = system: Echinochloa crus-galli var. formosensis; assay: Test Example 1: herbicidal effect test by soil application in paddy rice; conditions: 120 g active ingredient per 10 ares, applied immediately after sowing, flooded pots, 14 days after application; for pest or weed control at 1200 g/ha: Echinochloa crus-galli, soil, 336 h, read-out: weed inhibition rate
How it was run: (§1)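 Pre-emergence paddy treatment: diluted emulsifiable concentrate applied by dropper at 120 g a.i./10 ares immediately after sowing. Seeds (30 per species, 0–1 cm deep) in fertilized, puddled paddy soil kept under ~3 cm flood in a glass greenhouse.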

[2] = system: Scirpus juncoides; assay: as above; conditions: 120 g active ingredient per 10 ares, applied immediately after sowing, flooded pots, 14 days after application; for pest or weed control at 1200 g/ha: Schoenoplectiella juncoides, soil, 336 h, read-out: weed inhibition rate
How it was run: as §1

[3] = system: Echinochloa crus-galli var. formosensis; assay: Test Example 2: herbicidal effect test by application during growth period of paddy rice; conditions: 120 g per 10 ares, applied seven days after sowing, flooded pots, 14 days after application; for inhibition at 1200 g/ha: Echinochloa crus-galli, read-out: weed inhibition rate
How it was run: (§2)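 Paddy soil in flooded pots (water depth about 3 cm) was sown with weed seeds and kept in a glass greenhouse. Seven days after sowing, a diluted emulsifiable concentrate was applied by dropper at 120 g active ingredient per 10 ares. Weed inhibition was evaluated 14 days after application, in duplicate.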

[4] = system: Scirpus juncoides; assay: as above; conditions: 120 g per 10 ares, applied seven days after sowing, flooded pots, 14 days after application; for inhibition at 1200 g/ha: Schoenoplectiella juncoides, read-out: weed inhibition rate
How it was run: as §2

[5] = system: Digitaria ciliaris; assay: Test Example 3: herbicidal effect test by soil application in upland field; conditions: 120 g per 10 ares, sprayed one day after sowing, 14 days after application; for inhibition at 1200 g/ha: Digitaria ciliaris, read-out: weed inhibition rate
How it was run: (§3)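 Weed inhibition (%) was assessed 14 days after treatment, in duplicate per concentration group. Seeds had been mixed into the upper 1 cm of upland alluvial loam, and the soil surface was sprayed one day later with the diluted emulsifiable concentrate at 120 g active ingredient per 10 ares.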

[6] = system: Echinochloa crus-galli; assay: as above; conditions: 120 g per 10 ares, sprayed one day after sowing, 14 days after application; for inhibition at 1200 g/ha: Echinochloa crus-galli, read-out: weed inhibition rate
How it was run: as §3

[7] = system: Digitaria ciliaris; assay: Test Example 4: herbicidal effect test by stem and leaf treatment in upland field; conditions: 120 g per 10 ares, sprayed seven days after sowing, upland soil, 14 days after application; for inhibition at 1200 g/ha: Digitaria ciliaris, read-out: weed inhibition rate
[8] = system: Echinochloa crus-galli; assay: as above; conditions: 120 g per 10 ares, sprayed seven days after sowing, upland soil, 14 days after application; for inhibition at 1200 g/ha: Echinochloa crus-galli, read-out: weed inhibition rate
[9] = system: Echinochloa crus-galli var. formosensis; assay: Test Example 5: herbicidal effect test by soil application in paddy rice (low dose); conditions: 7.5 g per 10 ares, applied immediately after sowing, flooded pots, 14 days after application; for inhibition at 75 g/ha: Echinochloa crus-galli, soil, 336 h, read-out: weed inhibition rate
How it was run: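 Paddy-soil pots, weeds sown 0–1 cm deep and flooded to about 3 cm in a greenhouse. Emulsifiable concentrate diluted in water and dropped in right after sowing at 7.5 g active ingredient per 10 ares. Duplicates; effect scored 14 days after application.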

[10] = system: Echinochloa crus-galli var. formosensis; assay: Test Example 6: herbicidal effect test by application during growth period of paddy rice (low dose); conditions: 7.5 g per 10 ares, applied seven days after sowing, flooded pots, 14 days after application; for inhibition at 75 g/ha: Echinochloa crus-galli, read-out: weed inhibition rate
How it was run: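 Formulated compound, diluted in water, was dropped onto flooded pots seven days post-sowing at 7.5 g a.i. per 10 ares. Seeds had been sown 0-1 cm deep in puddled paddy soil under ~3 cm water in a glass greenhouse. Inhibition (%) assessed at 14 days; duplicate pots.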

[11] = system: Digitaria ciliaris; assay: Test Example 7: herbicidal effect test by soil application in upland field (low dose); conditions: 7.5 g per 10 ares, sprayed one day after sowing, 14 days after application; for inhibition at 75 g/ha: Digitaria ciliaris, read-out: weed inhibition rate
How it was run: (§4)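 Upland alluvial loam pots, seeds mixed into top 1 cm of soil; one day after sowing, diluted emulsifiable concentrate sprayed on soil at 100 L/10 a, giving 7.5 g active ingredient/10 a. Duplicate pots; weed inhibition rate (%) scored 14 days after application.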

[12] = system: Echinochloa crus-galli; assay: as above; conditions: 7.5 g per 10 ares, sprayed one day after sowing, 14 days after application; for inhibition at 75 g/ha: Echinochloa crus-galli, read-out: weed inhibition rate
How it was run: as §4

[13] = system: Digitaria ciliaris; assay: Test Example 8: herbicidal effect test by stem and leaf treatment in upland field (low dose); conditions: 7.5 g per 10 ares, sprayed seven days after sowing, upland soil, 14 days after application; for inhibition at 75 g/ha: Digitaria ciliaris, read-out: weed inhibition rate
[14] = system: Echinochloa crus-galli; assay: as above; conditions: 7.5 g per 10 ares, sprayed seven days after sowing, upland soil, 14 days after application; for inhibition at 75 g/ha: Echinochloa crus-galli, read-out: weed inhibition rate

CO[C@H]1C[C@]2(C)O[C@@]1(C(C)C)C[C@H]2OCc1ccccc1 [1-150, (1R,2S,4S,5R)-5-benzyloxy-1-isopropyl-2-methoxy-4-methyl-7-oxabicyclo[2.2.1]heptane]
≥ 80%: pest or weed control at 1200 g/ha [1] | pest or weed control at 1200 g/ha [2] | inhibition at 1200 g/ha [3] | inhibition at 1200 g/ha [4] | inhibition at 1200 g/ha [5] | inhibition at 1200 g/ha [6] | inhibition at 1200 g/ha [7] | inhibition at 1200 g/ha [8] | inhibition at 75 g/ha [9] | inhibition at 75 g/ha [10] | inhibition at 75 g/ha [11] | inhibition at 75 g/ha [12] | inhibition at 75 g/ha [13] | inhibition at 75 g/ha [14]

CC(C)[C@]12C[C@@H](OCc3ccccc3C#N)[C@](C)(C[C@@H]1I)O2 [1-768, 2-[[(l S,2R,4R,5S)-5-iodo-4-isopropyl-l-methyl-7-oxabicyclo[2.2.1]heptan-2-yl]oxymethyl]benzonitrile]
≥ 80%: weed inhibition rate [1] | weed inhibition rate [2] | weed inhibition rate [3] | weed inhibition rate [4] | weed inhibition rate [5] | weed inhibition rate [6] | weed inhibition rate [7] | weed inhibition rate [8] | weed inhibition rate [9] | weed inhibition rate [10] | weed inhibition rate [11] | weed inhibition rate [12] | weed inhibition rate [13] | weed inhibition rate [14]

CC(C)C12CC(OCc3ccccc3I)C(C)(CC1Cl)O2 (stereo not shown) [1-1298, 5-chloro-2-[(2-iodophenyl)methoxy]-1-methyl-4-isopropyl-7-oxabicyclo[2.2.1]heptane]
≥ 80%: pest or weed control at 1200 g/ha [1] | pest or weed control at 1200 g/ha [2] | inhibition at 1200 g/ha [3] | inhibition at 1200 g/ha [4] | inhibition at 1200 g/ha [5] | inhibition at 1200 g/ha [6] | inhibition at 1200 g/ha [7] | inhibition at 1200 g/ha [8] | inhibition at 75 g/ha [9] | inhibition at 75 g/ha [10] | inhibition at 75 g/ha [11] | inhibition at 75 g/ha [12] | inhibition at 75 g/ha [13] | inhibition at 75 g/ha [14]

CC(C)C12CC(OCc3ccsc3)C(C)(CC1Cl)O2 (stereo not shown) [1-1324, 2-chloro-1-isopropyl-4-methyl-5-(3-thienylmethoxy)-7-oxabicyclo[2.2.1]heptane]
≥ 80%: pest or weed control at 1200 g/ha [1] | pest or weed control at 1200 g/ha [2] | inhibition at 1200 g/ha [3] | inhibition at 1200 g/ha [4] | inhibition at 1200 g/ha [5] | inhibition at 1200 g/ha [6] | inhibition at 1200 g/ha [7] | inhibition at 1200 g/ha [8] | inhibition at 75 g/ha [9] | inhibition at 75 g/ha [10] | inhibition at 75 g/ha [11] | inhibition at 75 g/ha [12] | inhibition at 75 g/ha [13] | inhibition at 75 g/ha [14]

CC#CCO[C@@H]1C[C@]2(C(C)C)O[C@@]1(C)C[C@@H]2I [1-734, (1R,2S,4S,5R)-5-but-2-ynoxy-2-iodo-1-isopropyl-4-methyl-7-oxabicyclo[2.2.1]heptane]
≥ 80%: pest or weed control at 1200 g/ha [1] | pest or weed control at 1200 g/ha [2] | inhibition at 1200 g/ha [3] | inhibition at 1200 g/ha [4] | inhibition at 1200 g/ha [5] | inhibition at 1200 g/ha [6] | inhibition at 1200 g/ha [7] | inhibition at 1200 g/ha [8] | inhibition at 75 g/ha [9] | inhibition at 75 g/ha [10] | inhibition at 75 g/ha [11] | inhibition at 75 g/ha [12] | inhibition at 75 g/ha [13] | inhibition at 75 g/ha [14]
